In article PMC10850145, “Hormonal steroids induce multidrug resistance and stress response genes in Neisseria gonorrhoeae by binding to MtrR” (Nature Communications, 2024):
Values joined by “and” are separate entries in the source; they are usually repeats but may differ in a detail not shown here. Equal entries are not always repeated. Where two headings read alike, the source gives them in different places.

System: mtrC-lacZ expression
Type: cell-based, Neisseria gonorrhoeae
Conditions: for Plate-6 (Testosterone) Miller units, Mean / Plate-6 (Testosterone) Miller units: left (mtrC) half of sheet; for β-galactosidase activity, Mean / β-galactosidase activity, single replicate: mtrCDE block (c1-c37), ΔmtrR + mtrR R176E in trans
[1] = WT, testosterone 6.25 µM, right block Plate-4
[2] = WT, testosterone 25 µM, right block Plate-4
[3] = WT, testosterone 50 µM, right block Plate-4
[4] = fourth strain (lower plate half, wells 7-12; not named), testosterone 6.25 µM, right block Plate-4
[5] = fourth strain (lower plate half, wells 7-12; not named), testosterone 12.5 µM, right block Plate-4
[6] = mtrC-lacZ, ΔmtrR + mtrR D171A in trans, 6.25 µM hormone, single replicate
[7] = mtrC-lacZ, ΔmtrR + mtrR D171A in trans, 12.5 µM hormone, single replicate
[8] = mtrC-lacZ, ΔmtrR + mtrR D171A in trans, 25 µM hormone, single replicate
[9] = mtrC-lacZ, ΔmtrR + mtrR D171A in trans, 50 µM hormone, single replicate
[10] = mtrC-lacZ, ΔmtrR + mtrR WT in trans, 6.25 µM hormone, single replicate
[11] = mtrC-lacZ, ΔmtrR + mtrR WT in trans, 12.5 µM hormone, single replicate
[12] = mtrC-lacZ, ΔmtrR + mtrR WT in trans, 25 µM hormone, single replicate
[13] = mtrC-lacZ, ΔmtrR + mtrR WT in trans, 50 µM hormone, single replicate
[14] = mtrCDE, fourth strain (lower plate half, wells 7-12; not named), testosterone 1 µM, left block Plate-4
[15] = mtrCDE, fourth strain (lower plate half, wells 7-12; not named), testosterone 10 µM, left block Plate-4
[16] = mtrCDE, fourth strain (lower plate half, wells 7-12; not named), testosterone 25 µM, left block Plate-4
[17] = mtrCDE, fourth strain (lower plate half, wells 7-12; not named), testosterone 50 µM, left block Plate-4
[18] = mtrCDE, fourth strain (lower plate half, wells 7-12; not named), testosterone 100 µM, left block Plate-4

C[C@]12CC[C@H]3[C@@H](CCC4=CC(=O)CC[C@@]43C)[C@@H]1CC[C@@H]2O [Testosterone, testosterone]
Miller units, Mean (6.25 µM hormone, plate columns 1-6 (WT), mean of plate rows 1-4 (mtrC)): 141 Miller units | Miller units (6.25 µM hormone, plate columns 1-6 (WT), plate rows 1-4 (mtrC), single well): 164 Miller units and 134 Miller units and 127 Miller units and 139 Miller units | Miller units (6.25 µM hormone, plate columns 7-12 (second strain not given), plate rows 1-4 (mtrC), single well): 276 Miller units and 252 Miller units and 246 Miller units and 285 Miller units | Miller units, Mean (6.25 µM hormone, plate columns 7-12 (second strain), mean of plate rows 1-4 (mtrC)): 265 Miller units | Plate-6 (Testosterone) Miller units, Mean (6.25 µM, plate column 3, mean of plate rows 5-8): 43 Miller units | Plate-6 (Testosterone) Miller units (6.25 µM, plate column 3, plate rows 5-8, single wells): 39 Miller units and 46 Miller units and 47 Miller units | Plate-6 (Testosterone) Miller units, Mean (6.25 µM, plate column 9, mean of plate rows 5-8): 64 Miller units | Plate-6 (Testosterone) Miller units (6.25 µM, single wells): 55 Miller units and 57 Miller units and 65 Miller units and 80 Miller units | Miller units, Mean (12.5 µM hormone, plate columns 1-6 (WT), mean of plate rows 1-4 (mtrC)): 166 Miller units | Miller units (12.5 µM hormone, plate columns 1-6 (WT), plate rows 1-4 (mtrC), single well): 186 Miller units and 164 Miller units and 155 Miller units and 161 Miller units | Miller units (12.5 µM hormone, plate columns 7-12 (second strain not given), plate rows 1-4 (mtrC), single well): 296 Miller units and 248 Miller units and 237 Miller units and 196 Miller units | Miller units, Mean (12.5 µM hormone, plate columns 7-12 (second strain), mean of plate rows 1-4 (mtrC)): 244 Miller units | Plate-6 (Testosterone) Miller units, Mean (12.5 µM, plate column 4, mean of plate rows 5-8): 52 Miller units | Plate-6 (Testosterone) Miller units (12.5 µM, plate column 4, plate rows 5-8, single wells): 51 Miller units and 50 Miller units and 56 Miller units and 52 Miller units | Plate-6 (Testosterone) Miller units, Mean (12.5 µM, plate column 10, mean of plate rows 5-8): 62 Miller units | Plate-6 (Testosterone) Miller units (12.5 µM, plate column 10, plate rows 5-8, single wells): 58 Miller units and 54 Miller units and 63 Miller units and 74 Miller units | Miller units, Mean (25 µM hormone, plate columns 1-6 (WT), mean of plate rows 1-4 (mtrC)): 178 Miller units | Miller units (25 µM hormone, plate columns 1-6 (WT), plate rows 1-4 (mtrC), single well): 189 Miller units and 186 Miller units and 165 Miller units and 170 Miller units | Miller units (25 µM hormone, plate columns 7-12 (second strain not given), plate rows 1-4 (mtrC), single well): 284 Miller units and 276 Miller units and 289 Miller units and 254 Miller units | Miller units, Mean (25 µM hormone, plate columns 7-12 (second strain), mean of plate rows 1-4 (mtrC)): 276 Miller units | Plate-6 (Testosterone) Miller units, Mean (25 µM, plate column 5, mean of plate rows 5-8): 63 Miller units | Plate-6 (Testosterone) Miller units (25 µM, plate column 5, plate rows 5-8, single wells): 68 Miller units and 55 Miller units and 57 Miller units and 70 Miller units | Plate-6 (Testosterone) Miller units, Mean (25 µM, plate column 11, mean of plate rows 5-8): 65 Miller units | Plate-6 (Testosterone) Miller units (25 µM, plate column 11, plate rows 5-8, single wells): 64 Miller units and 60 Miller units and 68 Miller units and 67 Miller units | Miller units, Mean (50 µM hormone, plate columns 1-6 (WT), mean of plate rows 1-4 (mtrC)): 195 Miller units | Miller units (50 µM hormone, plate columns 1-6 (WT), plate rows 1-4 (mtrC), single well): 222 Miller units and 215 Miller units and 166 Miller units and 177 Miller units | Miller units (50 µM hormone, plate columns 7-12 (second strain not given), plate rows 1-4 (mtrC), single well): 310 Miller units and 287 Miller units and 255 Miller units and 237 Miller units | Miller units, Mean (50 µM hormone, plate columns 7-12 (second strain), mean of plate rows 1-4 (mtrC)): 272 Miller units | Plate-6 (Testosterone) Miller units, Mean (50 µM, plate column 6, mean of plate rows 5-8): 68 Miller units | Plate-6 (Testosterone) Miller units (50 µM, plate column 6, plate rows 5-8, single wells): 76 Miller units and 71 Miller units and 62 Miller units and 63 Miller units | Plate-6 (Testosterone) Miller units, Mean (50 µM, plate column 12, mean of plate rows 5-8): 57 Miller units | Plate-6 (Testosterone) Miller units (50 µM, single wells): 65 Miller units and 49 Miller units and 56 Miller units and 58 Miller units | Miller units, Mean (Mean of plate rows 1-4, plate columns 1-6 (first strain), 6.25 µM hormone): 69 Miller units | Miller units, Mean (Mean of plate rows 1-4, plate columns 1-6 (first strain), 12.5 µM hormone): 81 Miller units | Miller units, Mean (Mean of plate rows 1-4, plate columns 1-6 (first strain), 25 µM hormone): 98 Miller units | Miller units, Mean (Mean of plate rows 1-4, plate columns 1-6 (first strain), 50 µM hormone): 117 Miller units | Miller units, Mean (Mean of plate rows 1-4, plate columns 7-12 (second strain), 6.25 µM hormone): 96 Miller units | Miller units, Mean (Mean of plate rows 1-4, plate columns 7-12 (second strain), 12.5 µM hormone): 102 Miller units | Miller units, Mean (Mean of plate rows 1-4, plate columns 7-12 (second strain), 25 µM hormone): 112 Miller units | Miller units, Mean (Mean of plate rows 1-4, plate columns 7-12 (second strain), 50 µM hormone): 119 Miller units | Miller units, Mean [1]: 81 Miller units | Miller units, single replicate [1]: 103 Miller units and 88 Miller units | Miller units, single replicate (WT, testosterone 12.5 µM, right block Plate-4): 126 Miller units | Miller units, Mean [2]: 130 Miller units | Miller units, single replicate [2]: 144 Miller units and 138 Miller units | Miller units, Mean [3]: 134 Miller units | Miller units, single replicate [3]: 161 Miller units and 150 Miller units | induction of mtrC expression (complemented (MtrR+) strains, increasing hormone): could be induced | Miller units, Mean [4]: 47 Miller units | Miller units, single replicate [4]: 46 Miller units | Miller units, Mean [5]: 55 Miller units | Miller units, single replicate [5]: 56 Miller units | Miller units, Mean (fourth strain (lower plate half, wells 7-12; not named), testosterone 25 µM, right block Plate-4): 85 Miller units | Miller units, Mean (fourth strain (lower plate half, wells 7-12; not named), testosterone 50 µM, right block Plate-4): 79 Miller units | induction of mtrC expression (loss of MtrR or MtrR-D171A strain): abrogated | Miller units, Mean (mtrC-lacZ, WT, 6.25 µM hormone): 141 Miller units | Miller units, Mean (mtrC-lacZ, WT, 12.5 µM hormone): 166 Miller units | Miller units, Mean (mtrC-lacZ, WT, 25 µM hormone): 178 Miller units | Miller units, Mean (mtrC-lacZ, WT, 50 µM hormone): 195 Miller units | Miller units [6]: 162 Miller units | β-galactosidase activity (Miller units) [6]: 162 Miller units and 167 Miller units and 161 Miller units and 191 Miller units | Miller units [7]: 176 Miller units | β-galactosidase activity (Miller units) [7]: 176 Miller units and 177 Miller units and 161 Miller units and 186 Miller units | Miller units [8]: 185 Miller units | β-galactosidase activity (Miller units) [8]: 185 Miller units and 179 Miller units and 168 Miller units and 147 Miller units | Miller units [9]: 166 Miller units | β-galactosidase activity (Miller units) [9]: 166 Miller units and 158 Miller units and 156 Miller units | Miller units [10]: 108 Miller units and 127 Miller units and 114 Miller units and 153 Miller units | β-galactosidase activity (Miller units) [10]: 108 Miller units and 127 Miller units and 114 Miller units and 153 Miller units | Miller units [11]: 125 Miller units and 124 Miller units and 120 Miller units and 149 Miller units | β-galactosidase activity (Miller units) [11]: 125 Miller units and 124 Miller units and 120 Miller units and 149 Miller units | Miller units [12]: 133 Miller units and 137 Miller units and 127 Miller units | β-galactosidase activity (Miller units) [12]: 133 Miller units and 137 Miller units and 127 Miller units | Miller units [13]: 146 Miller units and 140 Miller units and 175 Miller units | β-galactosidase activity (Miller units) [13]: 146 Miller units and 140 Miller units and 175 Miller units | β-galactosidase activity (Miller units) (mtrC-lacZ, ΔmtrR strain, 6.25 µM hormone, single replicate): 246 Miller units | β-galactosidase activity (Miller units) (mtrC-lacZ, ΔmtrR strain, 12.5 µM hormone, single replicate): 237 Miller units | β-galactosidase activity (Miller units) (mtrC-lacZ, ΔmtrR strain, 25 µM hormone, single replicate): 289 Miller units | β-galactosidase activity (Miller units) (mtrC-lacZ, ΔmtrR strain, 50 µM hormone, single replicate): 255 Miller units | Miller units, Mean (mtrC-lacZ, ΔmtrR, 6.25 µM hormone): 265 Miller units | Miller units, Mean (mtrC-lacZ, ΔmtrR, 12.5 µM hormone): 244 Miller units | Miller units, Mean (mtrC-lacZ, ΔmtrR, 25 µM hormone): 276 Miller units | Miller units, Mean (mtrC-lacZ, ΔmtrR, 50 µM hormone): 272 Miller units | β-galactosidase activity, Mean (1 µM): 178 Miller units | β-galactosidase activity, single replicate (1 µM): 184 Miller units and 192 Miller units and 127 Miller units and 209 Miller units | β-galactosidase activity, Mean (10 µM): 206 Miller units | β-galactosidase activity, single replicate (10 µM): 290 Miller units and 186 Miller units and 155 Miller units and 194 Miller units | β-galactosidase activity, single replicate (25 µM): 208 Miller units and 213 Miller units and 178 Miller units and 198 Miller units | β-galactosidase activity, Mean (50 µM): 224 Miller units | β-galactosidase activity, single replicate (50 µM): 262 Miller units and 219 Miller units and 198 Miller units and 217 Miller units | β-galactosidase activity, Mean (100 µM): 238 Miller units | β-galactosidase activity, single replicate (100 µM): 255 Miller units and 223 Miller units and 213 Miller units and 260 Miller units | Miller units, Mean (mtrCDE, WT, testosterone 1 µM, left block Plate-4): 138 Miller units | Miller units, Mean (mtrCDE, WT, testosterone 10 µM, left block Plate-4): 235 Miller units | Miller units, Mean (mtrCDE, WT, testosterone 25 µM, left block Plate-4): 264 Miller units | Miller units, Mean (mtrCDE, WT, testosterone 50 µM, left block Plate-4): 229 Miller units | Miller units, Mean (mtrCDE, WT, testosterone 100 µM, left block Plate-4): 248 Miller units | Miller units, Mean [14]: 157 Miller units | Miller units, single replicate [14]: 182 Miller units | Miller units, Mean [15]: 190 Miller units | Miller units, single replicate [15]: 196 Miller units | Miller units, Mean [16]: 192 Miller units | Miller units, single replicate [16]: 225 Miller units and 177 Miller units | Miller units, Mean [17]: 201 Miller units | Miller units, single replicate [17]: 192 Miller units and 186 Miller units | Miller units, Mean [18]: 240 Miller units | Miller units, single replicate [18]: 256 Miller units and 229 Miller units | Miller units, Mean (mtrCDE, third strain (lower plate half, wells 1-6; not named), testosterone 1 µM, left block Plate-4): 107 Miller units | Miller units, Mean (mtrCDE, third strain (lower plate half, wells 1-6; not named), testosterone 10 µM, left block Plate-4): 177 Miller units | Miller units, Mean (mtrCDE, third strain (lower plate half, wells 1-6; not named), testosterone 25 µM, left block Plate-4): 181 Miller units | Miller units, Mean (mtrCDE, third strain (lower plate half, wells 1-6; not named), testosterone 50 µM, left block Plate-4): 213 Miller units | Miller units, Mean (mtrCDE, third strain (lower plate half, wells 1-6; not named), testosterone 100 µM, left block Plate-4): 227 Miller units | Miller units, Mean (mtrCDE, ΔmtrR, testosterone 1 µM, left block Plate-4): 334 Miller units | Miller units, Mean (mtrCDE, ΔmtrR, testosterone 10 µM, left block Plate-4): 358 Miller units
